Experimental data published in patent US12522616B2, “Thiazololactam compound as ERK inhibitor and use thereof” (D3 BIO (WUXI) CO., LTD., priority 2019, dated 2026).

Columns and labels:
ERK2 kinase = ERK2 kinase (Homo sapiens (Human), UniProt P28482); test: Assay of in vitro kinase activity (33P-ATP filter-binding, MBP substrate); format: biochemical; settings: remaining kinase activity vs DMSO control
Experimental: Assay Example 1. Assay of In Vitro Kinase Activity
The ability of compounds to inhibit ERK2 kinase activity was measured.
20 mM Hepes (pH 7.5), 10 mM MgCl2, 1 mM ethylenebis(oxyethylenenitrilo)tetraacetic acid (EGTA), 0.02% Brij35, 0.02 mg/mL bovine serum albumin (BSA), 0.1 mM Na3VO4, 2 mM dithiothreitol (DTT), 1% DMSO.
The assay compound was dissolved in 100% DMSO to prepare a stock solution of specific concentration. The compound was serially diluted in DMSO solution using Integra Viaflo Assist smart pipette.
• 1) The substrate MBP was prepared in freshly prepared reaction buffer; • 2) ERK2 kinase was added to the above-mentioned MBP solution and mixed gently; • 3) The compound dissolved in 100% DMSO was added to the kinase reaction system using ultrasound technology (Echo550; nanoliter range), and the mixture was incubated at room temperature for 20 minutes; • 4)^33P-ATP (specific concentration of […]) was added to the reaction system, and the reaction was started at this time; • 5) The mixture was incubated at room temperature for 2 hours; • 6) The amount of radioactivity was detected by filter-binding method; • 7) ERK2 kinase activity was calculated as the ratio of the remaining kinase activity in the assay sample to the kinase activity of the control group (treated by DMSO). Curve was fitted using Prism (GraphPad software) and IC50 values were calculated. 5.

HT29 tumor cells = test: Assay of in vitro cell proliferation inhibition (CellTiterGlo); format: cell-based; settings: Homo sapiens, HT-29
Experimental: Assay Example 2. Assay of In Vitro Cell Proliferation Inhibition
The ability of compounds to inhibit the proliferation of HT29 tumor cells was measured.
The assay compound was dissolved in 100% DMSO to prepare 10 mM stock solution.
• 1) UV light of a biological safety cabin was turned on, and 30 minutes were counted down; • 2) In a 37° C. water bath, RPMI1640 medium and trypsin were preheated; • 3) After completion of the UV irradiation, the biological safety cabin was opened. • The preheated medium, trypsin and phosphate buffered saline (PBS), etc. were wiped with alcohol and placed in the biological safety cabin; • 4) HT29 cells were removed from the incubator, and the old medium was removed in biological safety cabin. 10 ml of PBS was added. The mixture was shaken gently, and then PBS was removed; • 5) 1.5 ml of preheated 0.25% trypsin was added. The culture vessel was shaken horizontally so that the trypsin evenly covered the cells at the bottom, and placed in an incubator for 2 minutes; • 6) Cell digestion was stopped with complete medium, and the cell suspension was pipetted to homogeneity and counted; • 7) According to the result of cell counting, the density of cell suspension was adjusted to 1500 cells per well, and the cell suspension was seeded at 50 μl per well; • 8) The stock solution of compounds was serially diluted in DMSO solution, and compounds were added to cell plate using Tecan; • 9) The compound-added cell plate and CellTiterGlo were equilibrated at room temperature, and 25 microliters of CellTiterGlo was then added to each well. The cell plate was shaken for 1-2 minutes and then allowed to stand for 10 minutes. The signal value was then detected. The data were analyzed using XL-Fit, and the IC50 of each compound was calculated. 4.

[1] = In vivo DMPK assay in mouse; settings: female BALB/c mice; for Oral DNAUC (AUCPO/Dose) / bioavailability / Cmax: 3 mg/kg orally; for clearance / Vd / bioavailability / half-life / Cmax: mouse, plasma; for clearance / Vd: iv; for clearance / Vd / bioavailability: 1 mg/kg intravenously; for clearance: read-out: Cl (clearance rate); for Vd: read-out: Vdss (distribution volume); for bioavailability / Cmax: po; for bioavailability: read-out: F % (oral bioavailability); for half-life: single administration, read-out: T1/2 (half-life) (converted); for Cmax: read-out: Cmax (maximum concentration)
From the text: Assay Example 3. Assay of In Vivo DMPK
In vivo DMPK assay in mouse
Female BALB/c mice were used as assay animals to determine the blood concentration of compounds and evaluate the pharmacokinetic behavior after a single administration.
Eight healthy adult female BALB/c mice were selected, wherein 4 mice were in the intravenous injection group and 4 mice were in the oral group. The vehicle in the intravenous injection group was 5% DMSO+95% (20% HP-β-CD). The compound to be assayed was mixed with an appropriate amount of vehicle for intravenous injection, vortexed and sonicated to prepare a clear solution of 0.5 mg/mL. The clear solution was filtered by a microporous membrane, and then ready for use. The vehicle in the oral group was 5% DMSO+95% (20% HP-β-CD). The compound to be assayed was mixed with the vehicle, vortexed and sonicated to prepare a solution of 0.3 mg/mL. Mice were administered 1 mg/kg intravenously or 3 mg/kg orally, and then whole blood was collected for a certain period. Plasma was prepared. The drug concentration was analyzed by LC-MS/MS method, and the pharmacokinetic parameters were calculated by Phoenix WinNonlin software (Pharsight, USA).
Note: DMSO: dimethyl sulfoxide; HP-β-CD: hydroxypropyl-β-cyclodextrin.

[2] = test system: human non-small cell lung cancer H358 cells; test: In vivo efficacy in mouse H358 subcutaneous xenograft model; settings: BALB/c nude mouse, 30 mg/kg PO QD
Experimental: Animals were monitored daily for health and death. […] Animal deaths and side effects in each group were recorded based on the number of animals in each group. […] 5.

Sequence of ERK2 kinase (P28482 whole entry): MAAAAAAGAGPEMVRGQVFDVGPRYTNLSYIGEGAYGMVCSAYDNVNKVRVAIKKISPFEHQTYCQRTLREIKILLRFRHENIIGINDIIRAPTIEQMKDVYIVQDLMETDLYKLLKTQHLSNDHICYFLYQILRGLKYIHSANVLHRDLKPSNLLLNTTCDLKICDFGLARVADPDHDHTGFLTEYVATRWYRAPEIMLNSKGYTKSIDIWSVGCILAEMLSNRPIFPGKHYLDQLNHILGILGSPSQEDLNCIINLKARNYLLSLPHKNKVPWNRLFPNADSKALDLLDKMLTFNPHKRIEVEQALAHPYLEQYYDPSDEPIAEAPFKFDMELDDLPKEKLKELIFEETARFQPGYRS

Row | SMILES | IC50 (ERK2 kinase) [nM] | IC50 (HT29 tumor cells) [nM] | Oral DNAUC (AUCPO/Dose) [1] [nM · h/mpk] | Cmax [1] [nM] | further results
1 | Cn1nccc1Nc1nccc(-c2nc3c(s2)C(C)(C)N(Cc2cccc(F)c2)C3=O)n1 [WX002] | 0.35 | 24 |  |  | 
2 | COc1cc(Nc2ncc(C)c(-c3nc4c(s3)C(C)(C)N(Cc3cccc(F)c3)C4=O)n2)n(C)n1 [WX013] | 0.19 | 18 |  |  | 
3 | Cn1nccc1Nc1nccc(-c2nc3c(s2)C(C)(C)N(Cc2ccc(F)c(F)c2)C3=O)n1 [WX003] | 0.37 | 27 |  |  | 
4 | CC1(C)c2sc(-c3ccnc(NC4CCOCC4)n3)nc2C(=O)N1Cc1cccc(Cl)c1 [WX007] | 0.39 | 26 |  |  | 
5 | Cc1cnc(Nc2ccnn2C)nc1-c1nc2c(s1)C(C)(C)N(Cc1cccc(F)c1)C2=O [WX006] | 0.3 | 7 | 530 | 1040 | clearance [1]: 23 mL/min/kg; Vd [1]: 1.7 L/kg; bioavailability [1]: 34%; half-life [1]: 60 min; body weight of assay animals ([2]; to the 28th day): did not decrease significantly; morbidity or death ([2]; to the 28th day): no morbidity or death; TGI (inhibition rate of tumor growth) ([2]; H358 xenograft, 28th day): 94%
6 | Cn1nccc1Nc1nccc(-c2nc3c(s2)C(C)(C)N(Cc2cccc(Cl)c2)C3=O)n1 [WX001] | 0.24 | 14 | 2153 | 3360 | clearance [1]: 14.3 mL/min/kg; Vd [1]: 1.1 L/kg; bioavailability [1]: 86%; half-life [1]: 54 min
7 | CC1(C)c2sc(-c3ccnc(NC4CCOCC4)n3)nc2C(=O)N1Cc1cccc(F)c1 [WX004] | 0.25 | 35 |  |  | 

More lines, main results first:

Row | IC50 (ERK2 kinase) [nM] | IC50 (HT29 tumor cells) [nM] | Oral DNAUC (AUCPO/Dose) [1] [nM · h/mpk] | Cmax [1] [nM] | SMILES | further results
8 | 0.52 | 58 |  |  | Cc1cnc(Nc2ccnn2C(F)F)nc1-c1nc2c(s1)C(C)(C)N(Cc1cccc(F)c1)C2=O [WX008] | 
9 | 0.64 | 6 | 820 | 1170 | [2H]C([2H])([2H])n1nccc1Nc1ncc(C)c(-c2nc3c(s2)C(C)(C)N(Cc2cccc(F)c2)C3=O)n1 [WX009] | clearance [1]: 28 mL/min/kg; Vd [1]: 1.7 L/kg; bioavailability [1]: 67%; half-life [1]: 102 min
10 | 0.14 | 27 |  |  | Cc1cc(Nc2ncc(C)c(-c3nc4c(s3)C(C)(C)N(Cc3cccc(F)c3)C4=O)n2)n(C)n1 [WX010] | 
11 | 0.48 | 37 |  |  | Cc1cnc(Nc2ccnn2C2CC2)nc1-c1nc2c(s1)C(C)(C)N(Cc1cccc(F)c1)C2=O [WX012] | 
12 | 0.05 | 8 | 468 | 1030 | Cc1cnc(Nc2ccnn2C)nc1-c1nc2c(s1)C(C)(C)N(Cc1cccc(Cl)c1)C2=O [WX005] | 
13 | 0.98 | 26 |  |  | COCCn1nccc1Nc1ncc(C)c(-c2nc3c(s2)C(C)(C)N(Cc2cccc(F)c2)C3=O)n1 [WX011] | 
